Experimental data as given in patent US6207399A, “Methods of determining endogenous thrombin potential (ETP) and thrombin substrates for use in said methods” (Hemker; Hendrik Coenraad, priority 1995, dated 2001).
Peptide text beside a SMILES is read from it. * marks the point of attachment. pNA = O=[N+]([O-])c1ccc(N*)cc1

Columns and labels:
[1] = test system: thrombin; details: Svendsen et al; cited from earlier work
[2] = biological target: T1, factor Xa (Homo sapiens, UniProt P00742); experiment: Kinetic parameters of hydrolysis of the substrates by factor Xa in buffer A at 37° C. (Example 4, Table 3); assay type: biochemical; set-up: key to Factor Xa kcat: NH: no hydrolysis; details: buffer A, 37° C., 50 nM factor Xa
T1 construct: human factor Xa samples; gift of Dr. T. Lindhout (University of Limburg, Maastricht)
Summary of the method: (§1)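 p-Nitroaniline release followed at 405 nm in buffer A at 37 °C, with at least six substrate levels of 200–2000 μM. Thrombin at 0.5–50 nM, factor Xa at 50 nM; Km and kcat from initial velocities by linear regression on Michaelis-Menten.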

[3] = biological target: T2, human α-thrombin (Homo sapiens, UniProt P00734); experiment: Kinetics of hydrolysis of substrates by human α-thrombin in buffer A at 37° C. (Example 2, Table 1); assay type: biochemical
T2 construct: Pure human α-thrombin; gift of Dr. T. Lindhout (University of Limburg, Maastricht)
Summary of the method: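 p-Nitroaniline release was followed at 405 nm (dual wavelength 405-546 nm) in buffer A at 37° C, with substrate at 1 to 2000 μM (at least six levels) preincubated 5 min before enzyme at 0.5 to 100 nM. Km and kcat came from initial velocities fitted to Michaelis-Menten by linear regression, from one or two experiments.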

[4] = biological target: T3, euglobulin thrombin (Homo sapiens, UniProt P00734); experiment: Decay constants of thrombin in plasma; assay type: biochemical
T3 construct: The euglobulin thrombin fraction was prepared from defibrinated human plasma; from tissue; host or cells: defibrinated human plasma (euglobulin fraction, acid precipitation, method of Josso and Prou-Wartelle)
Method: (§2) To this mixture was added 10 μL of a thrombin preparation to achieve a final concentration of 100 nM. At regular time intervals (5-10 s) 10 μL samples were subsampled into 490 μL buffer B which contained 200 μM of S2238 to determine thrombin activity. After 2 min the reaction was stopped by adding 300 μL 1M citric acid. The moment of sampling and stopping were recorded on a personal computer with pushbutton-equipped pipettes. The optical density was then read at 405 nm and the obtained amidolytic activities were used to calculate the decay constants. The obtained decay constant is the sum of the decay constants of the reaction of thrombin with antithrombin III (k1) and α2 -macroglobulin (k2).
as §2, with “Decay constants of thrombin in plasma: To 120 μL defibrinated plasma was added: 50 μL of buffer A which contained the substances to be tested. To” for “To”, “was” for “was then”

[5] = biological target: T1, factor Xa; experiment: Kinetics of hydrolysis of substrates by human factor Xa in buffer A at 37° C. (Example 2, Table 2); assay type: biochemical; set-up: key to kcat: NH: not hydrolyzed by factor Xa
Method: Kinetic parameters: The hydrolysis experiments were run in buffer A at 37° C. The liberation of p-nitroaniline was monitored at 405 nm in a dual wavelength (405-546 nm) spectrophotometer made in our workshop, using a personal computer for data recording. In a polystyrene microcuvette (total volume 500 μL), buffer A and substrate solution were added to obtain a final substrate concentration between 1 to 2000 μM. After 5 min of incubation at 37° C., enzyme solution was added to achieve a final concentration between 0.5 to 100 nM. The measurement was carried out at 37° C. in a thermostated cuvette-holder. The Michaelis constant (Km) and the catalytic constant (kcat) were obtained by measuring initial reaction velocities at different substrate concentrations. The data obtained were fitted by linear regression on the Michaelis-Menten equation.
Kinetic parameters: In a preliminary experiment, the substrate was hydrolyzed under the following conditions: enzyme concentration: 10 to 20 nM, substrate concentration: 200 μM in buffer A to get an impression of the initial velocity. […] The results are given in table 1 and 2 for thrombin and factor Xa respectively. The Km and kcat for each substrate were determined from the initial velocities measured for at least six substrate concentrations in the concentration range as given. The enzyme concentration used gives a good signal to noise ratio. The data given are obtained from one or two experiments. The data from table 1 and 2 were only used as the first selection criterion to get a rough impression of the hydrolysis behaviour. Notwithstanding the preliminary character of the measurement it was helpful in the design of the substrates of our interest.

[6] = biological target: thrombin (Homo sapiens, UniProt P00734); experiment: Kinetic parameters of hydrolysis of the substrates by thrombin in buffer A at 37° C. (Example 4, Table 3); assay type: biochemical; set-up: Pure human α-thrombin; gift of Dr. T. Lindhout (University of Limburg, Maastricht); details: buffer A, 37° C.
Summary of the method: as §1

T1 sequence (P00742 41-179 limits assumed): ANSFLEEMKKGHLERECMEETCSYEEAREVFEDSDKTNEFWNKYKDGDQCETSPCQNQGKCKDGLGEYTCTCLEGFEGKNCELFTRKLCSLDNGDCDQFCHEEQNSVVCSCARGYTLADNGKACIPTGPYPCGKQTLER
T1 sequence (P00742 235-488 limits assumed): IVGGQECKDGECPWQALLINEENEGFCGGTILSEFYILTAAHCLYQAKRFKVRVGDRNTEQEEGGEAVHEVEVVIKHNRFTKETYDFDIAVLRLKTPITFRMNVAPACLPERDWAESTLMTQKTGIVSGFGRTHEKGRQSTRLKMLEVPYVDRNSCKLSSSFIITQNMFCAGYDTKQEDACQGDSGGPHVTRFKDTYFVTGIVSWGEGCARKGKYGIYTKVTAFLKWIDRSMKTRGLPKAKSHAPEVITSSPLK

- Factor Xa kcat [2]: NH
- Km [3]: 1240 µM
- kcat [3]: 0.23 s⁻¹
- kcat /Km [3]: 186 M/s
- k1 : AT-III dependent decay of thrombin ([4]; [S] 100 μM in plasma): 2.064 min⁻¹
- k2 : α2 M dependent decay of thrombin ([4]; [S] 100 μM in plasma): 0.253 min⁻¹
- koverall ([4]; [S] 100 μM in plasma): 2.317 min⁻¹
- t1/2 ([4]; [S] 100 μM in plasma): 17.95 s
- (k1,corr) = k1,corr divided by μM AT-III ([4]; [S] 200 μM in plasma): 21430 M⁻¹ s⁻¹
- k1,corr : k1 after correcting for k2,M and 0.170 ([4]; [S] 200 μM in plasma): 1.750 min⁻¹
- k1 : AT-III dependent decay of thrombin ([4]; [S] 200 μM in plasma): 1.751 min⁻¹
- k2 : α2 M dependent decay of thrombin ([4]; [S] 200 μM in plasma): 0.402 min⁻¹
- koverall ([4]; [S] 200 μM in plasma): 2.154 min⁻¹
- t1/2 ([4]; [S] 200 μM in plasma): 19.31 s
- (k1,corr) = k1,corr divided by μM AT-III ([4]; [S] 500 μM in plasma): 18630 M⁻¹ s⁻¹
- k1,corr : k1 after correcting for k2,M and 0.170 ([4]; [S] 500 μM in plasma): 1.521 min⁻¹
- k1 : AT-III dependent decay of thrombin ([4]; [S] 500 μM in plasma): 1.509 min⁻¹
- k2 : α2 M dependent decay of thrombin ([4]; [S] 500 μM in plasma): 0.389 min⁻¹
- koverall ([4]; [S] 500 μM in plasma): 1.898 min⁻¹
- t1/2 ([4]; [S] 500 μM in plasma): 21.91 s
- (k1,corr) = k1,corr divided by μM AT-III ([4]; [S] 1000 μM in plasma): 18500 M⁻¹ s⁻¹
- k1,corr : k1 after correcting for k2,M and 0.170 ([4]; [S] 1000 μM in plasma): 1.510 min⁻¹
- k1 : AT-III dependent decay of thrombin ([4]; [S] 1000 μM in plasma): 1.676 min⁻¹
- k2 : α2 M dependent decay of thrombin ([4]; [S] 1000 μM in plasma): 0.204 min⁻¹
- koverall ([4]; [S] 1000 μM in plasma): 1.879 min⁻¹
- t1/2 ([4]; [S] 1000 μM in plasma): 27.12 s
- k1 : AT-III dependent decay of thrombin ([4]; [S] 1500 μM in plasma): 1.087 min⁻¹
- k2 : α2 M dependent decay of thrombin ([4]; [S] 1500 μM in plasma): 0.130 min⁻¹
- koverall ([4]; [S] 1500 μM in plasma): 1.217 min⁻¹
- t1/2 ([4]; [S] 1500 μM in plasma): 34.17 s
- k1 : AT-III dependent decay of thrombin ([4]; [S] 2000 μM in plasma): 0.877 min⁻¹
- k2 : α2 M dependent decay of thrombin ([4]; [S] 2000 μM in plasma): 0.128 min⁻¹
- koverall ([4]; [S] 2000 μM in plasma): 1.005 min⁻¹
- t1/2 ([4]; [S] 2000 μM in plasma): 41.37 s
- kcat [5]: NH
- Km [6]: 1240 µM
- Thrombin kcat [6]: 0.23 s⁻¹
- Thrombin kcat /Km [6]: 186 M/s
Compound: CC(C)[C@H](N)C(=O)N[C@@H](CCCNC(=N)N)C(=O)Nc1ccc([N+](=O)[O-])cc1.Cl.Cl [2HCl.H-Val-Arg-pNA] (H-Val-Arg-pNA)
- factor by which poorer substrate for thrombin than Benzoyl-Phe-Val-Arg-p-nitroanilide [1]: ≥ 100
